Measured values as given in US20100278776A1, “PHARMACEUTICAL COMPOSITIONS FOR MODULATING A KINASE CASCADE AND METHODS OF USE THEREOF” (Kinex Pharmaceuticals, LLC, priority 2007, published 2010).
pIC50: −log10 of the molar value. Where a name gives a salt, the structure may show the parent alone. Read-outs that look alike come from different tables or passages of the source.

Tests used:
HBV = HBV primary assay (HepG2-2.2.15 antiviral assay); type: cell-based; details: Hepatitis B virus, Test Concentration 10 μM, read-out: Antiviral Activity Percent inhibition of cell control
Description: The HBV primary assay developed was conducted similarly to that described by Korba et al., (Antiviral Res. 15: 217-228 (1991) and Antiviral Res. 19: 55-70 (1992)) with the exception that viral DNA detection and quantification have been improved and simplified (Korba et al., Antiviral Res. 19: 55-70 (1992)).
The HepG2-2.2.15 is a stable cell line producing high levels of the wild-type aywl strain of HBV. Briefly, HepG2-2.2.15 cells were plated in 96-well plates. Only the interior wells were utilized to reduce “edge effects” observed during cell culture; the exterior wells are filled with complete medium to help minimize sample evaporation. […] Six days following the initial administration of the test compound, the cell culture supernatant was collected, treated with pronase and DNAse and then used in a real-time quantitative TaqMan PCR assay for direct measurement of HBV DNA copies using an ABI Prism 7900 sequence detection system (Applied Biosystems, Foster City, Calif.).
The antiviral activity of each test compound was calculated by comparing its HBV DNA copies against that of the untreated control cells (100%) to derive percent inhibition level. […] Cytotoxicity of the compound was determined by comparing its cell viability with that of the untreated cell control to derive percentage of the cell control.

Jurkat cells = assay: Leukemia cell growth inhibition, Jurkat; type: cell-based; details: Homo sapiens; Jurkat (Adult T cell leukemia)
H460 cells = assay: Dasatinib-resistant cell growth inhibition (MTT), H460; type: cell-based; details: Homo sapiens, NCI-H460, 8.0×10^3 cells/well, 1.5% FBS, 78 Hr
Description: The OD570 was measured using microplate reader. Growth inhibition curves and EC50/IC50 were determined using GraphPad Prism 4 statistical software. Data was normalized to represent percent of maximum response.

[1] = test system: HT29 (human colon cancer) xenograft; assay: Oral potency in staged HT29 mouse xenografts; details: 25 mg/kg bid; at day 5 dose lowered to 15 mg/kg bid
L3.6pl cell line = assay: Cell growth inhibition (BrdU assay), L3.6pl; type: cell-based, human
From the text: L3.6pl cells are previously described in Trevino et al. Am J. Pathol.

HT29 cell line = assay: Cell growth inhibition (BrdU assay), HT29; type: cell-based, human
Description: The HT29 cell line is a NCI standard human colon carcinoma cell line.
(§1) In the BrdU Assay for cell growth inhibition, quantitation of cell proliferation was based on the measurement of BrdU incorporation during DNA synthesis. The Cell Proliferation ELISA BrdU assay kit (colorimetric) was obtained from Roche Applied Science and performed as per vendor instructions.
(§2) The growth inhibition (GI) is determined from the formula GI=(T0−Tn×100/T0−CONn) where T0 is the BrdU growth of untreated cells at time “0”, Tn is the BrdU growth of treated cells at day “n” and CONn is the control BrdU growth of control cells at day “n”. The GI50 was extrapolated and the data plotted using XL-Fit 4.0 software.
(§3) For 96 well culture plate experiments, c-Src 3T3 medium was supplemented with 10 mM HEPES buffer. HT-29 cells were seeded in standard tissue culture 96-well plates and c-Src 3T3 cells were seeded in 96-well plates coated with Poly-D-lysine (BIOCOAT™). To increase CO2 diffusion, c-Src 3T3 96-well plates were incubated with their lids raised by ˜2 mm using sterile rubber caps.
(§4) Samples were reconstituted in DMSO at 20 mM and intermediate dilutions made using DMEM containing 10% FBS. […] Plates were assayed for BrdU and the data analyzed as above for GI50.

c-Src527F/NIH3T3 cells = assay: Cell growth inhibition (BrdU assay), c-Src 3T3; type: cell-based; details: Mus musculus
Description: The cells were routinely cultured in DMEM supplemented with Fetal Bovine Serum (2.0% v/V), L-glutamine (2 mM) and Sodium Pyruvate (1 mM).
as §1, §2, §3, §4

Abl(h) = Abl(h) (Homo sapiens, UniProt P00519); assay: Isolated kinase activity, Abl; type: biochemical; details: @ 10 μM
Abl(h), sequence (P00519 whole entry): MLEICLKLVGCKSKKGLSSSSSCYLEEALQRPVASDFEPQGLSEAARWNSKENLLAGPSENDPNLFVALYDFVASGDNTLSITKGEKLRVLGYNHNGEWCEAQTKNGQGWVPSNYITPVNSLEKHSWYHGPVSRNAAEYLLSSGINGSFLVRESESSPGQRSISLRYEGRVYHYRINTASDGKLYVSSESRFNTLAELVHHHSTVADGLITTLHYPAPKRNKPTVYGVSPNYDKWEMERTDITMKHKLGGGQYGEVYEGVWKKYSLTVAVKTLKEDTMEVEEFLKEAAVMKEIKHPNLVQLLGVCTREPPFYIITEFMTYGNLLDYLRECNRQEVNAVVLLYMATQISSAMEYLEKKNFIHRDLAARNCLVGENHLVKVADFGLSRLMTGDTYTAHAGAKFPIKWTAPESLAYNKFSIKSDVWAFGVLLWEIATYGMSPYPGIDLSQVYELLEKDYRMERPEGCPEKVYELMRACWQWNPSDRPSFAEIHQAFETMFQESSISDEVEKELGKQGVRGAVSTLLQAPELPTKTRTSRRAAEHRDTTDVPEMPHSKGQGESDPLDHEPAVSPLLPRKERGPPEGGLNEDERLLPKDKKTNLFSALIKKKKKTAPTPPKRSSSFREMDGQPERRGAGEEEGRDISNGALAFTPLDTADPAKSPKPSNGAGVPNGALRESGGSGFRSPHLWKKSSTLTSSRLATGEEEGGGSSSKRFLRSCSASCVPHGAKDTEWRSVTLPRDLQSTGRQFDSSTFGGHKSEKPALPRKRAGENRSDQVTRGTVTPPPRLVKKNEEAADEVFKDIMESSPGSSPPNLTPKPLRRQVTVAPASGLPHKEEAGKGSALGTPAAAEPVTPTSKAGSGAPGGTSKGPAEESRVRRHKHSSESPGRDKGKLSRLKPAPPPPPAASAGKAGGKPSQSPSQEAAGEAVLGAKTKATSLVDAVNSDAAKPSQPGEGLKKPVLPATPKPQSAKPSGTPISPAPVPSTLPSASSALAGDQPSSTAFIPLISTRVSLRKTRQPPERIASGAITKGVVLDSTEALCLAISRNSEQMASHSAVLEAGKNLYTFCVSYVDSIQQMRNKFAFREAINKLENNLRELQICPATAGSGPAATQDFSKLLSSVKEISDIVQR

EGFR(h) = EGFR(h) (Homo sapiens, UniProt P00533); assay: Isolated kinase activity, EGFR; type: biochemical; details: @ 10 μM
FGFR2(h) = FGFR2(h) (Homo sapiens, UniProt P21802); assay: Isolated kinase activity, FGFR2; type: biochemical; details: @ 10 μM
FGFR2(h), sequence (P21802 22-821): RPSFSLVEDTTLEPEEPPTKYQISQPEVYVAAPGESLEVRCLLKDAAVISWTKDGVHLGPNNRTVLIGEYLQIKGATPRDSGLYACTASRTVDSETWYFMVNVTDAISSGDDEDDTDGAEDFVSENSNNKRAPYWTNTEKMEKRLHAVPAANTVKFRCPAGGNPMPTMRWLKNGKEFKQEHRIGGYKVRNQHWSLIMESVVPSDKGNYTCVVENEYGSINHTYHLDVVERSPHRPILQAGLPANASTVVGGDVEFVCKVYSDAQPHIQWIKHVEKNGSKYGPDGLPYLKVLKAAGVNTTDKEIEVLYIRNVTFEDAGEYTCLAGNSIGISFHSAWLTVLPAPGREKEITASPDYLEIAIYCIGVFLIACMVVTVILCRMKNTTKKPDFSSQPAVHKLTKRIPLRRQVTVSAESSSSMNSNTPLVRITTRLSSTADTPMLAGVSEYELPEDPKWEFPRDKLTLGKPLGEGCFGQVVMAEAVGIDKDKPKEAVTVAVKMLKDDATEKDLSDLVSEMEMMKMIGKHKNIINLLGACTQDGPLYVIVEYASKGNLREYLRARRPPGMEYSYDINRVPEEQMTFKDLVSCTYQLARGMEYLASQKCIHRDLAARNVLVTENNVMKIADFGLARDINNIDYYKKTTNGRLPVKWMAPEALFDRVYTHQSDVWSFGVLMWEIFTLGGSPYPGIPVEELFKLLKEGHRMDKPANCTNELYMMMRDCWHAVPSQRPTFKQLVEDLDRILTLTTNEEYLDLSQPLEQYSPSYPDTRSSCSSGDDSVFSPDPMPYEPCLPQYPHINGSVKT

Fyn(h) = Fyn(h) (Homo sapiens, UniProt P06241); assay: Isolated kinase activity, Fyn; type: biochemical; details: @ 10 μM
IGF-1R(h) = IGF-1R(h) (Homo sapiens, UniProt P08069); assay: Isolated kinase activity, IGF-1R; type: biochemical; details: @ 10 μM
IR(h) = IR(h) (Homo sapiens, UniProt P06213); assay: Isolated kinase activity, IR; type: biochemical; details: @ 10 μM
IR(h), sequence (P06213 28-1382): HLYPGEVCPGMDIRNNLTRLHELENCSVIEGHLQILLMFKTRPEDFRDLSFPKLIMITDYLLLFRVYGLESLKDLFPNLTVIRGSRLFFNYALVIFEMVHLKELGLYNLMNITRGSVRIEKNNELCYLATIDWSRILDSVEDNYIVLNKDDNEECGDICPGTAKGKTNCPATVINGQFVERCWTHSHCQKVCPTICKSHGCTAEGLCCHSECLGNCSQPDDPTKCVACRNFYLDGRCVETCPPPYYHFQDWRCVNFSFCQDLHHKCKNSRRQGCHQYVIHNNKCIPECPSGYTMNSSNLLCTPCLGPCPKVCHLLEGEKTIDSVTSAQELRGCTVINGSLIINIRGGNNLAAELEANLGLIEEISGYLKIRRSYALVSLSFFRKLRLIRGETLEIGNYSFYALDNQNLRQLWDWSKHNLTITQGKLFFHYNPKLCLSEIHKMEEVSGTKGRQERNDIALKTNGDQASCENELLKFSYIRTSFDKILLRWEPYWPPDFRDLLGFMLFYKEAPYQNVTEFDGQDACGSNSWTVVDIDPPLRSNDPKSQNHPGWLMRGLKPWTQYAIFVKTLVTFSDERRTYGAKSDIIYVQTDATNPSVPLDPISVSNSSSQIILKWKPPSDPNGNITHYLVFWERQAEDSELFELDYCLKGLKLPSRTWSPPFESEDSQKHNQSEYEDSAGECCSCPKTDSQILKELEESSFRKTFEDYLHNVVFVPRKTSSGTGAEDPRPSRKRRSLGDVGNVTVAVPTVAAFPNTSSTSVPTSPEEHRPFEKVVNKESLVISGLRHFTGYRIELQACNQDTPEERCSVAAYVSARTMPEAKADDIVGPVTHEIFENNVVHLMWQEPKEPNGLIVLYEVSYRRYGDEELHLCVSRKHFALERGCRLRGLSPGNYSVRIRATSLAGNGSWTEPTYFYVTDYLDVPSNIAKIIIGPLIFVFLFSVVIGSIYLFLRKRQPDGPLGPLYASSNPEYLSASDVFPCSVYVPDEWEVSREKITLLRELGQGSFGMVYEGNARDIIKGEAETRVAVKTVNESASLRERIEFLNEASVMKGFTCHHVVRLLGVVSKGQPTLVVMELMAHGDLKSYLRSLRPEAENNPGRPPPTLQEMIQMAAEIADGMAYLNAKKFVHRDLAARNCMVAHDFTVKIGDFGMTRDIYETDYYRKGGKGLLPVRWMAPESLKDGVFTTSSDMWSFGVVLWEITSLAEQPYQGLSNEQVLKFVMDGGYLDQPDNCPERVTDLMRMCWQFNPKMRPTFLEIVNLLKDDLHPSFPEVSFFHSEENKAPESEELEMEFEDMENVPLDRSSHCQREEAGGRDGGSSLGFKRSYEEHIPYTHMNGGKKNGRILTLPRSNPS

Lck(h) = Lck(h) (Homo sapiens, UniProt P06239); assay: Isolated kinase activity, Lck; type: biochemical; details: @ 10 μM
Lyn(h) = Lyn(h) (Homo sapiens, UniProt P07948); assay: Isolated kinase activity, Lyn; type: biochemical; details: @ 10 μM
MAPK2(h) = MAPK2(h) (Homo sapiens, UniProt P28482); assay: Isolated kinase activity, MAPK2; type: biochemical; details: @ 10 μM
PDGFRβ(h) = PDGFRβ(h) (Homo sapiens, UniProt P09619); assay: Isolated kinase activity, PDGFRβ; type: biochemical; details: @ 10 μM
PKCα(h) = PKCα(h) (Homo sapiens, UniProt P17252); assay: Isolated kinase activity, PKCα; type: biochemical; details: @ 10 μM
Pyk2(h) = Pyk2(h) (Homo sapiens, UniProt Q14289); assay: Isolated kinase activity, Pyk2; type: biochemical; details: @ 10 μM
Yes(h) = Yes(h) (Homo sapiens, UniProt P07947); assay: Isolated kinase activity, Yes; type: biochemical; details: @ 10 μM
ZAP-70(h) = ZAP-70(h) (Homo sapiens, UniProt P43403); assay: Isolated kinase activity, ZAP-70; type: biochemical; details: @ 10 μM
PI3 kinase = assay: Isolated kinase activity, PI3 kinase; type: biochemical; details: @ 10 μM
isolated Src = isolated Src (Homo sapiens, UniProt P12931); assay: Titration against isolated Src; type: biochemical
isolated FAK = isolated FAK (Homo sapiens, UniProt Q05397); assay: Titration against isolated FAK; type: biochemical
isolated FAK, sequence (Q05397 whole entry): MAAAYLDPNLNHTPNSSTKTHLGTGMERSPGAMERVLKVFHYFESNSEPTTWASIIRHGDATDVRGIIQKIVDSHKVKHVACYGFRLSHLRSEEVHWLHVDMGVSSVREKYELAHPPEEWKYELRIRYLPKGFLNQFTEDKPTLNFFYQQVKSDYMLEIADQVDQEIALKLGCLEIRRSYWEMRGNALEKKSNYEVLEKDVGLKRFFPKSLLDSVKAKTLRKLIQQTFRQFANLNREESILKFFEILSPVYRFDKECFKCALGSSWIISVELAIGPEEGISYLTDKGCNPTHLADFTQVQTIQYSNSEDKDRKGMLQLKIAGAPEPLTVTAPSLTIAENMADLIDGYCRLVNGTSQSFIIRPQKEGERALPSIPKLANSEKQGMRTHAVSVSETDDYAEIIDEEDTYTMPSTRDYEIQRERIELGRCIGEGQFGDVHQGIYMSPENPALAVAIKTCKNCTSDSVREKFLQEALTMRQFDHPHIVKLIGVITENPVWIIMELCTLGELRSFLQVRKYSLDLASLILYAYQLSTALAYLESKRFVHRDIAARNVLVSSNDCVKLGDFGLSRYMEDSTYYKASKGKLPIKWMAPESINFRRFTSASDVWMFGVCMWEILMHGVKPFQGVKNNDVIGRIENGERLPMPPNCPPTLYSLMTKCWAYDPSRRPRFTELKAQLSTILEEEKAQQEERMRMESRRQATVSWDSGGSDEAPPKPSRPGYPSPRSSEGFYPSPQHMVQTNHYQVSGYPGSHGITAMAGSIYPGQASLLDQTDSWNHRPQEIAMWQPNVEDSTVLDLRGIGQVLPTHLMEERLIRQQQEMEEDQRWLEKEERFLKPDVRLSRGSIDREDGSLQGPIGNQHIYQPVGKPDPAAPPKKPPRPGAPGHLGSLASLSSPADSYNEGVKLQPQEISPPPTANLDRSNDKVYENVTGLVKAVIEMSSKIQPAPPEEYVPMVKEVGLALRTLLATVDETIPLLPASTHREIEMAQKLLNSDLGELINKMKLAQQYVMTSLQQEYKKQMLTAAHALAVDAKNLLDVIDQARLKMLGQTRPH

Src = biological target: T1, Src (Homo sapiens, UniProt P12931, Y530F); assay: Src kinase activity in whole cells (auto- and transphosphorylation, PAGE/antibodies); type: cell-based
T1 construct: expressed in transfected cells; host or cells: c-Src527F/NIH-3T3 (mouse fibroblasts transfected with human c-Src Y527F); part of the results come from HT-29 (endogenous human Src)
Description: (§5) AZ28 serves as a positive comparator to show what a validated Src inhibitor should do in these assays. After treatment with compound, cells were lysed, subjected to PAGE and probed with a battery of antibodies. […] In addition, off-target protein phosphorylation was also investigated. Further, induction of apoptosis was evaluated via Caspase 3 cleavage. Multiple doses of each compound were tested because the trends in response to increasing drug concentration are the most reliable indicator of activity.

Caspase-3 cleavage = assay: Induction of apoptosis via Caspase 3 cleavage; type: cell-based; details: HT29 and c-Src527F/NIH-3T3 cells
Description: as §5
Cleavage of Caspase-3 is a good measure of induction of apoptosis.

total phosphotyrosine = assay: Total phosphotyrosine levels in cells; type: cell-based; details: HT29 and c-Src527F/NIH-3T3 cells
Description: as §5

[2] = biological target: T2, PDGF receptor tyrosine kinase Y572/574 (Mus musculus, UniProt P26618); assay: PDGF receptor autophosphorylation in whole cells; type: cell-based
T2 construct: endogenous in cells; host or cells: c-Src527F/NIH-3T3
Description: as §5
This is thought not to be a direct Src substrate in cells.

FAK Y397 = assay: FAK autophosphorylation in whole cells; type: cell-based; details: c-Src527F/NIH3T3 cells
Description: as §5
FAK Y397 is mainly a FAK autophosphorylation site and only a poor Src transphorylation site. AZ28 is not a potent FAK inhibitor (see isolated enzyme data in Example 8).

[3] = test system: EGFR tyrosine kinase (EGF Y845); assay: EGFR tyrosine kinase autophosphorylation in whole cells; type: cell-based
Description: as §5
This site is not a direct Src phosphorylation site.

A549 cells = assay: Cell growth inhibition (BrdU assay), A549; type: cell-based, human; details: A549 (Lung); Drug 1 = Tarceva
Description: (§6) Cell lines being evaluated are: SKOV-2, K562, HT-29, A549, and MDA231. […] Except MDA231, this line is grown at 37° C. and 0% CO2.
(§7) Except MDA231, this line is grown at 37° C. and 0% CO2. Brdu assay was performed at T=0 and T=72.
(§8) Growth Inhibition. The BrdU data was used to determine the % growth inhibition for each sample concentration using the formula:
(§9) where T0=Fluorescence of cells at time 0; T1=Fluorescence of treated cells at x hours; Con=Fluorescence of control cells at x hours. T1 values T0 values were designated as T, cytotoxicity. The GI50 was estimated using XLFit excluding T1 values T0 (cytotoxicity).

SKOV-3 cells = assay: Cell growth inhibition (BrdU assay), SKOV-3; details: SKOV-3 (Ovarian); Drug 1 = taxol
Description: as §6, §7, §8, §9

## O=C(Cc1ccc(-c2ccc(OCCN3CCOCC3)cc2)cn1)NCc1ccccc1 [Compound (I): 2HCl, 2-(5-(4-(2-morpholinoethoxy)phenyl)pyridin-2-yl)-N-benzylacetamide dihydrochloride salt]
HBV
  inhibition at 10 µM: 48.2%

## Cc1nc(Nc2ncc(C(=O)Nc3c(C)cccc3Cl)s2)cc(N2CCN(CCO)CC2)n1 [Dasatinib]
Jurkat cells
  GI50: 8 nM
H460 cells
  pIC50: 7.05
[1]
  body weight: weight loss

## Nc1ccn([C@@H]2O[C@H](CO)[C@@H](O)C2(F)F)c(=O)n1 [Gemcitabine, gemcitabine]
L3.6pl cell line; Homo sapiens, L3.6pl, BrdU, T=72, read-out: GI50, Single
  GI50: 1.76 nM
L3.6pl cell line; L3.6pl (Pancreas), Drug 1 = Gemcitabine
  Drug 1:compound (I) GI50 ratio: 1/13

## COc1cc2c(Nc3c(Cl)ccc4c3OCO4)ncnc2cc1OCCCN1CCCCC1 [KX2-328]
HT29 cell line; Homo sapiens, HT-29, HT29 (Colon), read-out: GI50
  GI50: 647 nM
HT29 cell line; Homo sapiens, HT-29, HT29, read-out: GI50
  GI50: 794 nM
HT29 cell line; Homo sapiens, HT-29, NCI human colon cancer cell line HT29
  GI50: 794 nM
HT29 cell line; Homo sapiens, HT-29, 50 nM, read-out: HT-29 Growth, % of Control, Mean, n = 3
  activity at 0.05 µM: 73%
HT29 cell line; Homo sapiens, HT-29, 500 nM, read-out: HT-29 Growth, % of Control, Mean, n = 3
  activity at 0.5 µM: 10%
HT29 cell line; Homo sapiens, HT-29, 5 uM, read-out: HT-29 Growth, % of Control, Mean, n = 3
  activity at 5 µM: < 0%
c-Src527F/NIH3T3 cells; NIH3T3, c-Src 3T3
  GI50: 99 nM
c-Src527F/NIH3T3 cells; NIH3T3, c-Src527F/NIH3T3
  GI50: 87 nM
c-Src527F/NIH3T3 cells; NIH3T3, c-Src/NIH-3T3 engineered cell line
  GI50: 99 nM
c-Src527F/NIH3T3 cells; NIH3T3, 100 nM, read-out: c-Src 3T3 Growth, % of Control, Mean, n = 3
  activity at 0.1 µM: 13%
c-Src527F/NIH3T3 cells; NIH3T3, 1.0 uM, read-out: c-Src 3T3 Growth, % of Control, Mean, n = 3
  activity at 1 µM: < 0%
c-Src527F/NIH3T3 cells; NIH3T3, 10 uM, read-out: c-Src 3T3 Growth, % of Control, Mean, n = 3
  activity at 10 µM: < 0%
Abl(h)
  percent activity of isolated kinase relative to control (untreated): 1%
EGFR(h)
  percent activity of isolated kinase relative to control (untreated): 3%
FGFR2(h)
  percent activity of isolated kinase relative to control (untreated): 94%
Fyn(h)
  percent activity of isolated kinase relative to control (untreated): 2%
IGF-1R(h)
  percent activity of isolated kinase relative to control (untreated): 110%
IR(h)
  percent activity of isolated kinase relative to control (untreated): 125%
Lck(h)
  percent activity of isolated kinase relative to control (untreated): 1%
Lyn(h)
  percent activity of isolated kinase relative to control (untreated): 0%
MAPK2(h)
  percent activity of isolated kinase relative to control (untreated): 105%
PDGFRβ(h)
  percent activity of isolated kinase relative to control (untreated): 98%
PKCα(h)
  percent activity of isolated kinase relative to control (untreated): 111%
Pyk2(h)
  percent activity of isolated kinase relative to control (untreated): 43%
Yes(h)
  percent activity of isolated kinase relative to control (untreated): 1%
ZAP-70(h)
  percent activity of isolated kinase relative to control (untreated): 97%
PI3 kinase
  percent activity of isolated kinase relative to control (untreated): 99%
Isolated Src
  pIC50: 8.10
  fold less potent against cell growth than against isolated Src: 10-100 ×
Isolated FAK
  pIC50: < 6.30
  fold less potent against isolated FAK (than isolated Src): ≥ 100 ×
Src; c-Src527F/NIH-3T3 cells
  phosphorylation of Paxillin Y-31 (Src transphosphorylation substrate): inhibited Src trans-phosphorylation
Src; whole cells
  phosphorylation of FAK Tyr 925 (Src transphosphorylation substrate): inhibited Src trans-phosphorylation
  phosphorylation of Shc Y239/240 (Src transphosphorylation substrate): inhibited Src trans-phosphorylation
Caspase-3 cleavage
  induction of apoptosis (Caspase-3 cleavage): not effective in inducing apoptosis
Total phosphotyrosine
  total phosphotyrosine levels: reduction in the total phosphotyrosine levels
[2]
  PDGF receptor autophosphorylation (Y572/574): dose response reduction
FAK Y397
  FAK autophosphorylation (Y397): some inhibition
[3]
  EGFR tyrosine kinase autophosphorylation: potently inhibits

## C#Cc1cccc(Nc2ncnc3cc(OCCOC)c(OCCOC)cc23)c1 [Tarceva]
A549 cells
  Drug 1:compound (I) GI50 ratio: 134

## O=C1[O][Pt]2([NH][C@@H]3CCCC[C@H]3[NH]2)[O]C1=O [oxaliplatin]
HT29 cell line; HT29 (Colon), Drug 1 = oxaliplatin
  Drug 1:compound (I) GI50 ratio: 59

## CC(=O)O[C@H]1C(=O)[C@@]2(C)[C@H]([C@H](OC(=O)c3ccccc3)[C@]3(O)C[C@H](OC(=O)[C@H](O)[C@@H](NC(=O)c4ccccc4)c4ccccc4)C(C)=C1C3(C)C)[C@]1(OC(C)=O)CO[C@@H]1C[C@@H]2O [taxol]
SKOV-3 cells
  Drug 1:compound (I) GI50 ratio: 0.40
